Laboratory results published in patent US12419305B2, “Antimicrobial compositions” (Firmenich SA, priority 2018, dated 2025).
Like-named read-outs stand apart in the source and are kept apart here.

What was measured:
[1] = tested on: E. coli ATCC 10536; assay: BCT test (bacterial contact time), 45 s, log reduction / effect fraction; CI by Compusyn; assay type: cell-based, Escherichia coli; settings: Escherichia coli, ATCC10536, 45 s
Procedure: E. coli, S. aureus, P. aeruginosa, and S. enterica: Separate suspensions of the E. coli ATCC 10536 strain, S. aureus ATCC 6538 strain, Pseudomonas aeruginosa ATCC 15442 strain, and the Salmonella enterica ATCC 10708 strain were prepared as follows: Stock cultures (stored at −80° C.) were thawed and sub-cultured onto Tryptic Soy Agar (TSA) agar plate media, and incubated at 37° C. for 24 h to obtain single colonies. Single colonies of the primary cultures were streaked onto TSA plates and incubated at 37° for 24 h to generate secondary cultures. Single colonies of secondary cultures picked and used to inoculate into 50 mL of TSB broth. The inoculated TSB broth was incubated at 37° C. at 180 rpm for 18 h. Aliquots (0.5 ml) of the 18 h culture were inoculated into 50 ml of fresh TSB broth, and incubated at 37° C. at 180 rpm for 2-3 hours. When the OD600 nm value of the broth reached 1-2, cells were harvested by centrifugation at 5000 rpm for 10 min, and then resuspended in fresh TSB broth at a concentration of 1-5×10^8 CFU/mL. These suspensions were used as the bacterial suspensions for the BCT test.
(§1) BCT Test: Test compositions at a range of concentrations (either combinations of more than one perfume ingredient, and comparative compositions comprising the single perfume ingredients) were prepared in ethanol. Five replicates of each test composition were added into 96-well microtiter plates (120 μl per well), with row B containing control compositions containing the ethanol solution alone. 120 μl of bacterial cell suspensions at a concentration of approximately 1×10^8 bacteria per mL (as prepared above) were added to each well of the microtiter plate. The bacterial suspensions were incubated with the test solutions for 45, 60, or 120 seconds. Following the incubation of the bacterial suspensions with the test solutions, serial dilutions of the bacterial suspensions were generated (three serial 1:10 dilutions, followed by 17 serial 1:2 dilutions), in multiwell microtiter plates.
(§2) Each plate was sealed and incubated at 37° C. under agitation (180 rpm). After incubation, the turbidity of the wells (OD600 nm) was determined using a Tecan microplate reader. Turbid wells were regarded as positive growth, due to the presence of viable cells. The total number of viable cells (log CFU) for each sample was calculated. And the log reduction for each test composition at the final concentration (dose) was calculated against the control sample of the ethanol solution.
(§3) Determination of Synergy via the Combination Index (CI): The CI was calculated using Compusyn software (ComboSyn, Inc., as created by Dr. Dorothy Chou in 2005), according to the manufacturer's instructions. The concentration of each test composition (combinations of more than one perfume ingredient, and comparative compositions comprising the single perfume ingredients used to generate the combination) and their corresponding effect fraction was entered, and the corresponding CI calculated.
(§4) When the calculated CI values were less than 0.9, the combination of perfume ingredients was regarded as having synergistic effect. When the calculated CI was between 1.0 a 0.9, the combination of perfume ingredients was regarded as having an additive effect. When the calculated CI was greater than 1.0, the combination of perfume ingredients was regarded as having an antagonistic effect.

[2] = tested on: Salmonella enterica ATCC 10708; assay: BCT test (bacterial contact time), 60 s, log reduction / effect fraction; CI by Compusyn; assay type: cell-based; settings: Salmonella enterica, ATCC10708, 1 min, BCT 60 s, in 25% EtOH; for log reduction at 0.1 % strength: read-out: Log reduction
In short: (§5)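 Read-out: log CFU from turbidity (OD600) of serially diluted wells after 37° C, 180 rpm growth; log reduction relative to ethanol-only control. Cells at ~1×10^8/mL met ethanolic test compositions 1:1 for the listed contact time. CI from concentrations and effect fractions; <0.9 synergy, 0.9–1.0 additive, >1.0 antagonism.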

[3] = tested on: Pseudomonas aeruginosa ATCC 15442; assay: as above; assay type: cell-based; settings: Pseudomonas aeruginosa, ATCC15442, 1 min, BCT 60 s, in 25% EtOH
In short: as §5

[4] = tested on: S. haemolyticus 114126; assay: BCT test (bacterial contact time), 120 s, log reduction / effect fraction; CI by Compusyn; assay type: cell-based; settings: Staphylococcus haemolyticus, 114126, 2 min, contact 120 s, 25% EtOH; for log reduction at 0.2 % strength: dose 0.2% w/v
Procedure: S. haemolyticus: Suspensions of the S. haemolyticus 114126 strain, isolated from skin, were prepared as follows: Stock cultures (stored at −80° C.) were thawed and sub-cultured onto TSA-TW80 agar plate media, and incubated at 37° C. for 24 h to obtain single colonies. Single colonies of the primary cultures were streaked onto fresh TSA-TW80 plates and incubated at 37° C. for 24 h to prepare secondary cultures. Single colonies of secondary cultures were picked and used to inoculate 50 mL of BHI-TW80 broth. The inoculated broth was incubated at 37° C. at 180 rpm for 18 h. Aliquots (0.5 ml) of the 18 h culture were inoculated into 50 ml of fresh BHI-TW80 broth, and incubated at 37° C. at 180 rpm for approximately 3 hours. When the OD 600 nm value of the broth reached 1-2, cells were harvested by centrifugation at 5000 rpm for 10 min, and then resuspended in fresh BHI-TW80 broth at a concentration of 1-5×10^8 CFU/mL. This suspension was used as the bacterial suspension for the BCT test.
as §1, §2, §3, §4

[5] = tested on: C. xerosis ATCC 373; assay: as above; assay type: cell-based; settings: Corynebacterium xerosis, ATCC373, 2 min, contact 120 s, 25% EtOH; for log reduction at 0.2 % strength: dose 0.2% w/v; for log reduction at 0.25 % strength: dose 0.25% w/v; for log reduction at 0.3 % strength: dose 0.3% w/v
Procedure: C. xerosis: Suspensions of the C. xerosis ATCC 373 strain were prepared as follows: Stock cultures (stored at −80° C.) were thawed and subcultured onto Tryptic Soy Agar media with Tween 80 (TSA-TW80), and incubated at 37° C. for 48 h. The primary cultures were subcultured onto TSA-TW80 again, to prepare the secondary cultures. Single colonies of the secondary cultures were selected and used to inoculate 30 ml brain heart infusion broth with Tween 80 (BHI-TW80). The inoculated broth was incubated at 37° C. at 180 rpm for 24 h. Aliquots (1 ml) of the 24 h culture were inoculated into 30 ml of fresh BHI-TW80 broth media, and incubated at 37° C. at 180 rpm for 48 h. Aliquots (2-3 ml) of the 48 h culture were inoculated into four 50 ml of fresh BHI-TW80 broth media, and incubated at 37° C. 180 rpm for 4-6 hrs. When the OD 600 nm reached the target value of 1.6, cells were harvested by centrifugation at 5000 rpm for 10 min, and then resuspended in the same fresh BHI-TW80 at a concentration of 10^9 to 10^10 cfu/mL. This suspension was used as the bacterial suspension for the BCT test.
as §1, §2, §3, §4

Compound: CC(CCO)CCc1ccccc1 (stereo not drawn) [Phenylhexanol, 3-methyl-5-phenyl-1-pentanol]
- log reduction at 0.02 % strength ([1]; dose 0.02% w/v, contact 45 s, 20% EtOH): 0
- log reduction at 0.03 % strength ([1]; dose 0.03% w/v, contact 45 s, 20% EtOH): 0
- log reduction at 0.035 % strength ([1]; dose 0.035% w/v, contact 45 s, 20% EtOH): 1.1
- log reduction at 0.04 % strength ([1]; dose 0.04% w/v, contact 45 s, 20% EtOH): 2.4
- log reduction at 0.05 % strength ([1]; dose 0.05% w/v, contact 45 s, 20% EtOH): 7.2
- log reduction at 0.045 % strength ([2]; Dose 0.045 % w/v): 7.9
- log reduction at 0.05 % strength ([3]; Dose 0.05 % w/v): 3.7
- log reduction at 0.06 % strength ([3]; Dose 0.06 % w/v): 5.3
- log reduction at 0.07 % strength ([3]; Dose 0.07 % w/v): 7.1
- log reduction at 0.08 % strength ([3]; Dose 0.08 % w/v): 7.5
- log reduction at 0.1 % strength ([4]; dose 0.1% w/v): 1.2
- log reduction at 0.125 % strength ([4]; dose 0.125% w/v): 3.9
- log reduction at 0.15 % strength ([4]; dose 0.15% w/v): 6.1
- log reduction at 0.175 % strength ([4]; dose 0.175% w/v, read-out: Log reduction): 6.9
- log reduction at 0.2 % strength [4]: 7.3
- log reduction at 0.15 % strength ([5]; dose 0.15% w/v): 2.5
- log reduction at 0.2 % strength ([5]; read-out: Log reduction): 4.2
- log reduction at 0.25 % strength ([5]; read-out: Log reduction): 5.1
- log reduction at 0.3 % strength ([5]; read-out: Log reduction): 5.9

Compound: C=CCc1ccc(O)c(OC)c1 [Eugenol F, 2-Methoxy-4-(prop-2-en-1-yl)phenol]
- log reduction at 0.075 % strength ([1]; dose 0.075 % w/v, 45 s, in 20% EtOH): 0
- log reduction at 0.09 % strength ([1]; dose 0.090 % w/v, 45 s, in 20% EtOH): 0.3
- log reduction at 0.1 % strength ([1]; dose 0.100 % w/v, 45 s, in 20% EtOH, read-out: Log reduction): 0.9
- log reduction at 0.125 % strength ([1]; dose 0.125 % w/v, 45 s, in 20% EtOH): 2.5
- log reduction at 0.15 % strength ([1]; dose 0.150 % w/v, 45 s, in 20% EtOH): 7.4
- log reduction at 0.075 % strength ([2]; Dose 0.075 % w/v): 1
- log reduction at 0.1 % strength ([2]; Dose 0.1 % w/v): 2.4
- log reduction at 0.1 % strength ([2]; Dose 0.10 % w/v): 2
- log reduction at 0.125 % strength ([2]; Dose 0.125 % w/v): 4.4
- log reduction at 0.15 % strength ([2]; Dose 0.15 % w/v): 7.8
- log reduction at 0.12 % strength ([3]; Dose 0.12 % w/v): 2.4
- log reduction at 0.14 % strength ([3]; Dose 0.14 % w/v): 3.8
- log reduction at 0.15 % strength ([3]; Dose 0.15 % w/v): 7.5
- log reduction at 0.2 % strength [4]: 0.3
- log reduction at 0.25 % strength ([4]; dose 0.25% w/v, read-out: Log reduction): 2.37
- log reduction at 0.3 % strength ([4]; dose 0.3% w/v, read-out: Log reduction): 4.9
- log reduction at 0.35 % strength ([4]; dose 0.35% w/v): 7.6
- log reduction at 0.1 % strength ([5]; dose 0.1% w/v): 0.1
- log reduction at 0.2 % strength ([5]; read-out: Log reduction): 0.4
- log reduction at 0.25 % strength ([5]; read-out: Log reduction): 1.8
- log reduction at 0.3 % strength ([5]; read-out: Log reduction): 2.7
- log reduction at 0.4 % strength ([5]; dose 0.4% w/v, read-out: Log reduction): 5.1
- log reduction at 0.5 % strength ([5]; dose 0.5% w/v): 6.3
